Measurements as given in patent US20080248008A1, “Inhibitors of Protein Kinase a Anchoring” (priority 2004, published 2008).

What was measured:
RI = molecular target: T1, RI (Homo sapiens, UniProt P10644); assay: Co-immunoprecipitation with RI in transfected HEK293 cells; type: cell-based; settings: HEK293 cells transfected with GFP-fusion constructs
T1 construct: endogenous in cells; host or cells: HEK293 (transfected only with GFP-peptide constructs)
Method: HEK293 cells at […] were transfected with ten μg of plasmid DNA (GFP, GFP-MEME3 or GFP-Scrambled MEME3) by using the CaCl2 method. Cells were lysed after 30 hours in lysis buffer (20 mM Hepes, pH 7.5/150 mM NaCl/1 mM EDTA/1% Triton X-100) with protease inhibitors (Complete Mini, EDTA-free tablets, Roche).
Immunoblot analysis. Immunocomplexes and lipid raft fractions were analysed on a 10, 15% or 4-20% PAGE and blotted onto PVDF membranes. The filters were blocked in 5% non-fat dry milk in TBST for 30 minutes at RT, incubated 1 hour at RT (or overnight at 4° C.) with primary antibodies, washed four times 5 minutes in TBST with 0.1% Tween-20 and incubated with a horseradish-peroxidase-conjugated secondary antibody. Blots were developed by using Supersignal West Dura Extended Duration Substrate or Supersignal West Pico substrate (Pierce).
Antibodies. RI or RII were immunoprecipitated with polyclonal antibodies against human RI or human RII at a 3 μg/ml dilution (Santa Cruz Biotechnology). MEME3 or scrambled peptide was immunoprecipitated with 1.5 μl of anti-GFP antiserum (Invitrogen). […]
Immunocomplexes were analysed on 10% PAGE (B and C) or 15% PAGE (D) and subjected to Western blotting using anti-GFP, anti-RI or anti-RII as indicated and blotted onto PVDF membranes. […]

PKA-RIIα [1] = molecular target: PKA-RIIα (Homo sapiens, UniProt P13861); assay: Solid phase pull down from T cell lysate, PKA-RIIα; type: binding; parameters: endogenous in cells; host or cells: Jurkat T cells (lysate); settings: overnight
Method: (§1) Solid phase assay and cell lysate. 5×10^6 Y1 cells or 20×10^6 Jurkat T cells lysed in 150 mM NaCl, 1% NP-40, 0.5% deoxycholate, 0.1% SDS and 50 mM Tris HCl (7.8) were incubated overnight at 4° C. with MEME3 and SM3 peptides synthesized on membranes (Autospot, Intavis, AG). The membranes were washed two times for 10 minutes in lysis buffer and thereafter in high salt lysis buffer (1 M NaCl) before boiling in SDS-PAGE loading buffer.
Solid phase pull down (see schematic illustration in FIG. 24A, left panel) was performed to analyse endogenous PKA binding to MEME3. MEME3 and SM3 peptides synthesized in triplicate on membranes were incubated overnight in T cell lysate, thereafter bound proteins were eluted, subjected to 10% PAGE electrophoresis and analysed by immunoblotting (FIG. 11). The presence of PKA subunits was assessed by immunoblotting using specific antibodies against PKA-RIα and PKA-RIIα subunits.

PKA-RIIα [2] = molecular target: T2, PKA-RIIα (Mus musculus, UniProt P12367); assay: Solid phase immobilization from Y-1 adrenal cell lysate, PKA-RIIα; type: binding; settings: overnight
T2 construct: host or cells: mouse Y-1 adrenocortical cells (lysate)
Method: as §1
A solid phase immobilization assay (schematic illustration in FIG. 24, left panel) was used to analyse endogenous PKA binding to MEME3. MEME3 and SM3 peptides synthesized in triplicate on membranes were incubated overnight in lysate from Y-1 adrenal cells. Thereafter bound proteins were eluted, subjected to 10% PAGE and analysed by immunoblotting using specific antibodies against PKA-RIα, PKA-C and PKA-RIIα subunits.

Y1 adrenal cells = assay: Progesterone production in Y1 adrenal cells; type: cell-based, mouse; settings: Actinomycin D treated cells
Method: Mouse adrenocortical Y1 cells were obtained from ATCC (Cat. No. CCL-79) and maintained in DMEM/HAM'S F-12 (Cat. No. E15-813, PAA Laboratories GmbH, Pasching, Austria) supplemented with 100 μg/ml streptomycin, 100 U/ml penicillin and 10% (v/v) fetal calf serum in a humidified atmosphere of 5% CO2 and split by trypsination at less than 80% confluence.
Progesterone production and StAR protein level. Y1 cells were cultured overnight in 6-well plates at the density of 1.5×10^6 cells per well. To increase the basal level of StAR, the cells were pre-stimulated with 10 μM forskolin for 1 hour, washed twice with medium, before peptide loading. Thereafter, the cells were loaded with 50 μM of the arginine-coupled peptide for 5 hours before being treated with 5 μg/ml Actinomyocin D (Cat. No. A-9415, Sigma) for 30 min and stimulated with 10 μM forskolin (Cat. No. 344270, Calbiochem) or 10 IU/ml ACTH (Cat. No. A-6303, Sigma) for 12 hours. […] Progesterone in the cell medium was measured by using either Spectria Progesterone RIA (Cat. No. 68521, Orion Diagnostica, Espoo, Finland) or DELFIA progesterone kit (Cat. No. A066-101, PerkinElmer) following the conditions recommended by the manufacture. The cells were lysed and the StAR protein was analysed by western blotting and the level measured by densiometric analysis.

Chain of PKA-RIIα (Homo sapiens, UniProt P13861) (P13861 whole entry): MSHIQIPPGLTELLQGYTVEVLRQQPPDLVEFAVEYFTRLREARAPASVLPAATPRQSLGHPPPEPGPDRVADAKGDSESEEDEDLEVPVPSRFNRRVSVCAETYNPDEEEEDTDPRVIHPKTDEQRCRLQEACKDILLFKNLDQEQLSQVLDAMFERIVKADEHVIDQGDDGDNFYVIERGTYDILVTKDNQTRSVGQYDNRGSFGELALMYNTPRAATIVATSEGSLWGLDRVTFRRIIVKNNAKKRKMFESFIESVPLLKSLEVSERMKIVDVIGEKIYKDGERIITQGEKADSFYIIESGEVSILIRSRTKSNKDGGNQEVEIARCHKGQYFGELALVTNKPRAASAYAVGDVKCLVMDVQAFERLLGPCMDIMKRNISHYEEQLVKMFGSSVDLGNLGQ
T2 sequence (P12367 whole entry): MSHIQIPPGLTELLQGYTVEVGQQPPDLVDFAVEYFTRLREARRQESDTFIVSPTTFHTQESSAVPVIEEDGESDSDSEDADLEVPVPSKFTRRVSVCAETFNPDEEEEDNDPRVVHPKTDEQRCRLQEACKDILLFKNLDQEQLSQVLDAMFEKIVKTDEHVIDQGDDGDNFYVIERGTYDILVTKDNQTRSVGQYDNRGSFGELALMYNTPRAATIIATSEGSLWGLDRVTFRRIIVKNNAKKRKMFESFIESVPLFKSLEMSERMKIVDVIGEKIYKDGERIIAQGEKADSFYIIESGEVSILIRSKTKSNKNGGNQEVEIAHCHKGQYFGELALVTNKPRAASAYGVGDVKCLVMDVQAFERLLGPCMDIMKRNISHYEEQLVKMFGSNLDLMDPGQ

| Molecule | co-precipitation with RI (RI) | immobilization of PKA-RIIα (PKA-RIIα [1]) | immobilization of PKA-RIIα (PKA-RIIα [2]) | inhibition relative to that with mutated PKA phosphorylation site in StAR (Y1 adrenal cells) | reduction of progesterone production compared to SM3-Arg11 (Y1 adrenal cells; forskolin) [%] |
| --- | --- | --- | --- | --- | --- |
| CC[C@H](C)[C@H](NC(=O)[C@H](CCC(N)=O)NC(=O)[C@H](CC(=O)O)NC(=O)[C@H](C)NC(=O)[C@H](CC(C)C)NC(=O)[C@H](CCC(N)=O)NC(=O)[C@H](CC(N)=O)NC(=O)[C@H](C)NC(=O)[C@H](Cc1ccc(O)cc1)NC(=O)[C@H](CCC(N)=O)NC(=O)[C@H](CCC(=O)O)NC(=O)[C@@H](N)CC(C)C)C(=O)N[C@H](C(=O)N[C@@H](CCCCN)C(=O)N[C@@H](CCC(=O)O)C(=O)N[C@@H](C)C(=O)N[C@H](C(=O)N[C@@H](CCC(=O)O)C(=O)N[C@@H](CCCCNC(=O)c1ccc2c(c1)C(=O)OC21c2ccc(O)cc2Oc2cc(O)ccc21)C(N)=O)[C@@H](C)O)[C@@H](C)CC [MEME3] | Co-precipitation of MEME3 with RI | not PKA-RIIα |  |  |  |
| IEKELAQQYQNADAITLE [SM3, scrambled MEME3 negative control peptide, reference compound] | did not co-precipitate with RI | Neither PKA-RIα nor PKA-RIIα bound | Neither PKA-RIα, PKA-C nor PKA-RIIα were immobilized |  |  |
| LEQYANQLADQIIKEATERRRRRRRRRrr [MEME3-Arg11] |  |  |  | approximately 80% | 60 |
